Measurements published in US8063021B2, “Ketolide anti-infective compounds” (Kosan Biosciences Incorporated, priority 2003, dated 2011).

Experiments:
[1] = test system: S. pneumoniae ATCC 700671; assay: microdilution assay MIC, S. pneumoniae ATCC 700671; format: cell-based, Streptococcus pneumoniae; conditions: S. pneumoniae ATCC 700671, erythromycin sensitive strain; average where multiple assays
Experimental: (§1) In Table B, in some instances multiple assays were performed for a compound/strain combination, in which case the reported MIC is the average. S. pneumoniae ATCC 6301, ATCC 700671, and ATCC 49619 and S. aureus ATCC 6538p and ATCC 29213 are erythromycin sensitive strains.

S. pneumoniae ATCC 6301 = assay: microdilution assay MIC, S. pneumoniae ATCC 6301; format: cell-based, Streptococcus pneumoniae; conditions: S. pneumoniae ATCC 6301, erythromycin sensitive strain; average where multiple assays
Experimental: as §1

[2] = test system: S. pneumoniae ATCC 700905; assay: microdilution assay MIC, S. pneumoniae ATCC 700905; format: cell-based, Streptococcus pneumoniae; conditions: S. pneumoniae ATCC 700905, erythromycin A resistant strain; average where multiple assays
Experimental: as §1

[3] = test system: S. pneumoniae ATCC 700906; assay: microdilution assay MIC, S. pneumoniae ATCC 700906; format: cell-based, Streptococcus pneumoniae; conditions: S. pneumoniae ATCC 700906, erythromycin A resistant strain; average where multiple assays
Experimental: (§2) In Table B, in some instances multiple assays were performed for a compound/strain combination, in which case the reported MIC is the average.

H. influenzae ATCC 49766 = assay: microdilution assay MIC, H. influenzae ATCC 49766; format: cell-based, Haemophilus influenzae; conditions: average where multiple assays
Experimental: as §1

[4] = test system: S. pneumoniae ATCC 700676; assay: microdilution assay MIC, S. pneumoniae ATCC 700676; format: cell-based, Streptococcus pneumoniae; conditions: S. pneumoniae ATCC 700676, erythromycin A resistant strain; average where multiple assays
Experimental: as §1

H. influenzae ATCC 9006 = assay: microdilution assay MIC, H. influenzae ATCC 9006; format: cell-based, Haemophilus influenzae; conditions: average where multiple assays
Experimental: as §1

S. pneumoniae ATCC 49619 = assay: microdilution assay MIC, S. pneumoniae ATCC 49619; format: cell-based, Streptococcus pneumoniae; conditions: S. pneumoniae ATCC 49619, erythromycin sensitive strain; average where multiple assays
Experimental: as §1

[5] = test system: S. pneumoniae ATCC 700677; assay: microdilution assay MIC, S. pneumoniae ATCC 700677; format: cell-based, Streptococcus pneumoniae; conditions: S. pneumoniae ATCC 700677, erythromycin A resistant strain; average where multiple assays
Experimental: as §1

S. aureus ATCC 14154 = assay: microdilution assay MIC, S. aureus ATCC 14154; format: cell-based, Staphylococcus aureus; conditions: S. aureus ATCC 14154, erythromycin A resistant strain; average where multiple assays
Experimental: as §2

S. aureus ATCC 6538p = assay: microdilution assay MIC, S. aureus ATCC 6538p; format: cell-based, Staphylococcus aureus; conditions: erythromycin sensitive strain, average where multiple assays
Experimental: as §1

S. aureus ATCC 29213 = assay: microdilution assay MIC, S. aureus ATCC 29213; format: cell-based, Staphylococcus aureus; conditions: S. aureus ATCC 29213, erythromycin sensitive strain; average where multiple assays
Experimental: as §1

[6] = test system: S. epidermidis ATCC 12228; assay: microdilution assay MIC, S. epidermidis ATCC 12228; format: cell-based, Staphylococcus epidermidis; conditions: average where multiple assays
Experimental: as §1

E. faecalis ATCC 51575 = assay: microdilution assay MIC, E. faecalis ATCC 51575; format: cell-based, Enterococcus faecalis; conditions: average where multiple assays
Experimental: as §2

Row | Compound | MIC [1] [µg/mL] | MIC (S. pneumoniae ATCC 6301) [µg/mL] | MIC [2] [µg/mL] | MIC [3] [µg/mL] | MIC (H. influenzae ATCC 49766) [µg/mL] | MIC [4] [µg/mL] | MIC (H. influenzae ATCC 9006) [µg/mL] | MIC (S. pneumoniae ATCC 49619) [µg/mL] | MIC [5] [µg/mL] | MIC (S. aureus ATCC 14154) [µg/mL] | MIC (S. aureus ATCC 6538p) [µg/mL] | MIC (S. aureus ATCC 29213) [µg/mL] | MIC [6] [µg/mL] | MIC (E. faecalis ATCC 51575) [µg/mL]
1 | COC1(C)CC(C)C(=O)C(C)C2NC(=O)OC2(C)C(CCNC(=O)Oc2ccc(F)cc2)OC(=O)C(C)C(=O)C(C)C1OC1OC(C)CC(N(C)C)C1O (stereo not drawn) [Compound 116] | 0.025 | 0.025 | 0.025 | 0.098 | 6.25 | 0.025 | 3.12 | 0.049 | 0.39 |  |  |  |  | 
2 | COC1(C)CC(C)C(=O)C(C)C2NC(=O)OC2(C)C(CCN(Cc2cccc(-c3ccco3)c2)Cc2cccc(-c3ccco3)c2)OC(=O)C(C)C(=O)C(C)C1OC1OC(C)CC(N(C)C)C1O (stereo not drawn) [Compound 104] | 3.12 | 3.12 | >12.5 | >12.5 | >12.5 | 6.25 | >12.5 | >12.5 | 6.25 | 6.25 | >12.5 | 6.25 | 6.25 | 12.5
3 | COC1(C)CC(C)C(=O)C(C)C2NC(=O)OC2(C)C(CCNS(=O)(=O)c2cccc3cccnc23)OC(=O)C(C)C(=O)C(C)C1OC1OC(C)CC(N(C)C)C1O (stereo not drawn) [Compound 105] | 0.01 | 0.01 | 0.01 | 0.39 | 6.25 | 0.01 | 3.12 | 0.01 | 0.01 | 0.39 | 0.049 | 0.049 | 0.025 | 0.025
4 | COC1(C)CC(C)C(=O)C(C)C2NC(=O)OC2(C)C(CCNC(=O)Oc2cccc(-c3cccnc3)c2)OC(=O)C(C)C(=O)C(C)C1OC1OC(C)CC(N(C)C)C1O (stereo not drawn) [Compound 109] | 0.025 | 0.025 | 0.025 | 0.025 | 1.56 | 0.025 | 1.56 | 0.025 | 0.025 |  |  |  |  | 
5 | COC1(C)CC(C)C(=O)C(C)C2NC(=O)OC2(C)C(CCNC(=O)Oc2cccc(-c3ccncc3)c2)OC(=O)C(C)C(=O)C(C)C1OC1OC(C)CC(N(C)C)C1O (stereo not drawn) [Compound 110] | 0.025 | 0.025 | 0.025 | 0.049 | 3.12 | 0.025 | 1.56 | 0.025 | 0.025 |  |  |  |  | 
6 | CCN(C)CCC1OC(=O)C(C)C(=O)C(C)C(OC2OC(C)CC(N(C)C)C2O)C(C)(OC)CC(C)C(=O)C(C)C2NC(=O)OC12C (stereo not drawn) [Compound 101] | 0.39 | 0.2 | 3.12 | >12.5 |  | 6.25 |  | 0.78 | >12.5 | 6.25 | 6.25 | 6.25 | 6.25 | 6.25
7 | COC1(C)CC(C)C(=O)C(C)C2NC(=O)OC2(C)C(CCNC(=O)OCC2c3ccccc3-c3ccccc32)OC(=O)C(C)C(=O)C(C)C1OC1OC(C)CC(N(C)C)C1O (stereo not drawn) [Compound 115] | 0.025 | 0.025 | 0.025 | 0.025 | 1.56 | 0.025 | 0.78 | 0.025 | 0.025 |  |  |  |  | 
8 | COC1(C)CC(C)C(=O)C(C)C2NC(=O)OC2(C)C(CCNC(=O)Oc2ccc3ccccc3c2)OC(=O)C(C)C(=O)C(C)C1OC1OC(C)CC(N(C)C)C1O (stereo not drawn) [Compound 113] | 0.025 | 0.025 | 0.025 | 0.025 | 1.56 | 0.025 | 1.56 | 0.025 | 0.025 |  |  |  |  | 
9 | COC1(C)CC(C)C(=O)C(C)C2NC(=O)OC2(C)C(CCNC(=O)OCC(C)C)OC(=O)C(C)C(=O)C(C)C1OC1OC(C)CC(N(C)C)C1O (stereo not drawn) [Compound 117] | 0.098 | 0.025 | 0.025 | >12.5 | 6.25 | 0.025 | 6.25 | 0.025 | >12.5 |  |  |  |  | 
10 | COC1(C)CC(C)C(=O)C(C)C2NC(=O)OC2(C)C(CCNC(=O)Oc2ccc(-c3ccccc3)cc2)OC(=O)C(C)C(=O)C(C)C1OC1OC(C)CC(N(C)C)C1O (stereo not drawn) [Compound 112] | 0.025 | 0.025 | 0.025 | 0.049 | 6.25 | 0.025 | 3.12 | 0.049 | 0.78 |  |  |  |  | 
11 | COC1(C)CC(C)C(=O)C(C)C2NC(=O)OC2(C)C(CCN2CCCCC2)OC(=O)C(C)C(=O)C(C)C1OC1OC(C)CC(N(C)C)C1O (stereo not drawn) [Compound 102] | 3.12 | 0.098 | 0.098 | >12.5 | 6.25 | 0.78 | 3.12 | 0.2 | >12.5 |  |  |  |  | 
12 | COC1(C)CC(C)C(=O)C(C)C2NC(=O)OC2(C)C(CCNC(=O)Oc2cccc3ccccc23)OC(=O)C(C)C(=O)C(C)C1OC1OC(C)CC(N(C)C)C1O (stereo not drawn) [Compound 114] | 0.025 | 0.025 | 0.025 | 6.25 | 3.12 | 0.098 |  | 0.049 | 0.049 | 0.025 | 0.025 |  |  | 
13 | COC(=O)NCCC1OC(=O)C(C)C(=O)C(C)C(OC2OC(C)CC(N(C)C)C2O)C(C)(OC)CC(C)C(=O)C(C)C2NC(=O)OC12C (stereo not drawn) [Compound 118] | 0.049 | 0.025 | 0.98 | >12.5 | 3.12 | 0.098 | 6.25 | 0.049 | 0.39 | 0.39 | 0.49 |  |  | 
14 | COC1(C)CC(C)C(=O)C(C)C2NC(=O)OC2(C)C(CCNC(=O)Nc2cccc3ccccc23)OC(=O)C(C)C(=O)C(C)C1OC1OC(C)CC(N(C)C)C1O (stereo not drawn) [Compound 119] | 0.049 | 0.025 | 0.025 | 0.098 | 3.12 | 0.049 | 6.25 | 0.025 | 0.78 |  |  |  |  | 
15 | COC1(C)CC(C)C(=O)C(C)C2NC(=O)OC2(C)C(CCNC(=O)Oc2cccc(-c3ccccc3)c2)OC(=O)C(C)C(=O)C(C)C1OC1OC(C)CC(N(C)C)C1O (stereo not drawn) [Compound 111] | 0.025 | 0.025 | 0.025 | 0.025 | 1.56 | 0.025 | 1.56 | 0.049 | 0.025 |  |  |  |  | 
16 | CC[C@H]1OC(=O)[C@H](C)[C@@H](O[C@H]2C[C@@](C)(OC)[C@@H](O)[C@H](C)O2)[C@H](C)[C@@H](O[C@@H]2O[C@H](C)C[C@H](N(C)C)[C@H]2O)[C@](C)(O)C[C@@H](C)C(=O)[C@H](C)[C@@H](O)[C@]1(C)O [Ery A, erythromycin A, reference compound] | 0.049 | 0.025 | 3.12 |  | 6.25 | 6.25 | 1.56 | 0.049 | 6.25 |  | 0.098 | 0.20 | 0.20 | 
